{"source": "patent US20260364186A1", "about": "“Chemical Conjugates, Compositions, and Methods of Preparation and Use Thereof” (Transfection Holdings Limited, priority 2022, published 2026)", "key": {"[1]": {"system": "NZM11 melanoma cancer cell line", "experiment": "FACS uptake of BODIPY FL conjugates, 50 nM, 5 min (Example 1)", "assay_type": "cell-based, human", "protocol": "FIG. 1. Conjugate compounds coupled to BODIPY FL were tested for uptake using 50 nM each conjugate and 5 minute incubation with HEM (human epidermal melanocytes) and melanoma cell line NZM11 (BRAF V600E mutant metastatic melanoma). Mean fluorescent intensities (MFI). For these tests, n=300-500, mean±SD. Results were from a single experiment done in triplicate. Cells were sorted by FACS.\nMaterials and methods: NZM11 is an adherent metastatic melanoma cell derived from a patient with a subcutaneous lesion on their mid back. This human metastatic melanoma is identified with code CBA-1398 from Cell bank Australia. […] Cells of NZM11 diluted in MEMα media and cells of HEMnDP (primary melanocyte cell line) diluted in media 254 were left to settle in 96-wells microplate for 48 hours. 10 μL of 10 mM stock solutions in DMSO from 138 and pantothenic acid/pantothenic acid derivatives coupled to BODIPY were diluted with HBSS to afford 100 nM solution. Then, 100 nM compounds and DMSO solutions were diluted 1:1 with MEMα media for NZM11 and media 254 for HEMnDP to afford 50 nM solutions. After the 48 hour settle time, media was removed from the cells and 200 μL of 50 nM media solutions were poured to each well and incubated for 5 minutes at 37 °C. […] The FACS results output represented the mean of the fluorescence intensities (in arbitrary units) measured for cells sorted in every sample"}, "[2]": {"system": "mouse embryonic fibroblasts MEF", "experiment": "FACS uptake of BODIPY FL conjugates (Example 4)", "assay_type": "cell-based", "details": "200 nM, 5 min", "protocol": "FIG. 4B: Conjugate compounds coupled to BODIPY FL were tested for uptake using 200 nM each conjugate and 5 minute incubation with mouse embryonic fibroblasts MEF. Mean fluorescent intensities (MFI). 1,000 cells were sorted by FACS.\nFibroblasts are ubiquitous mesenchymal cells that are thought to play important roles in wound repair and healing, and serve as reservoirs of multipotent progenitors capable of repopulating depleted cell compartments. Primary mouse embryonic fibroblast (MEF) cultures consist of highly heterogeneous populations of distinct cell types. Singhal, P. K., et al., 2016. MEF cells have a limited growth capacity and on prolonged passaging spontaneously immortalize at a low frequency. In contrast to transformation of primary MEF cells that requires the presence of two cooperating oncogenes, immortalised MEF cells can be transformed by a single oncogene (Ras) resulting in a loss of contact inhibition, anchorage-independent growth, and tumour formation in nude mice. Studies of MEF cells have played an important role in the elucidation of the molecular mechanisms underlying cellular immortalization, transformation, and tumorigenesis. Additionally, utilization of MEF cells disrupted for specific genes has provided a powerful tool to analyse the genetic regulation of these cellular processes. Sun and Taneja, 2007. […]"}, "Jurkat cells": {"system": "Jurkat cells", "experiment": "Flow cytometry time course of uptake (Example 12)", "assay_type": "cell-based, human", "details": "200 nM", "protocol": "FIG. 12: Time course of uptake for compounds 124, 126, and 132 at 200 nM after 5, 30 or 60 minute incubation with Jurkat cells. Mean fluorescent intensities (MFI). 1,000 cells were sorted by FACS. Bars represent mean±SD. Results represents a single experiment done in triplicate.\nMaterials and methods: For this study, 7.7×10^5 Jurkat cells were centrifuged for 5 minutes at 2500 RPM. The supernatant was removed and the cells were diluted in RPMI media (supplemented with 1% FBS+1% penicillin-streptomycin) to 400 cells/μL. Next, 28 μL of 100 μM stock solutions from compound 124, 126, or 132 were diluted with 6972 μL of RPMI media (supplemented with 1% FBS+1% penicillin-streptomycin) to give a 400 nM solution. Following this, 250 μL of conjugate solutions (giving a 200 nM final concentration) and 250 μL of cell suspensions were then added to each well in a 96 well plate. In addition, 250 μL of media only was added to the DMSO control wells. Incubation was carried out for 5, 30 and 60 minutes at 37 °C in triplicate wells for each compound and time point.\nAfter incubation, cells were centrifuged for 1.5 minutes at 5000 RCF. Supernatant was removed and the cell pellet re-suspended in 200 μL fresh RPMI media, transferred to 96 well-plate and each cell suspension analysed by flow cytometry. Flow cytometry results represent the mean of the fluorescence intensities (in arbitrary units) measured for cells sorted in every sample."}}, "note": "“Also recorded” adds a separate entry of the source."}
{"smiles": "CC1=CC(C)=[N+]2C1=Cc1ccc(CCCn3cc(CCNC(=O)/C=C/NC(=O)[C@H](O)C(C)(C)CO)nn3)n1[B-]2(F)F", "note": "[Compound 124]", "values": [{"measurement": "uptake (fluorescence intensities)", "setting": "[1]", "result": "significant uptake; also recorded: highest intensities; also recorded: best targeting activity, with high uptake into cancer cells"}, {"measurement": "uptake (fluorescent intensities)", "setting": "[2]", "result": "highest uptake; also recorded: showed uptake"}, {"measurement": "uptake, times higher than DMSO control", "setting": "Jurkat cells; 5 minutes", "result": 4, "unit": "times"}, {"measurement": "uptake increase compared to DMSO control", "setting": "Jurkat cells; 30 minutes", "result": "ten"}, {"measurement": "uptake increase compared to DMSO control", "setting": "Jurkat cells; 60 minutes", "result": "fourteen"}, {"measurement": "uptake, in words", "setting": "Jurkat cells; 5, 30, 60 minutes", "result": "highest uptake at every timepoint; also recorded: selective uptake"}]}
